Molecules are shown by their SMILES.

Chain of HPK1 kinase (Q92918 whole entry): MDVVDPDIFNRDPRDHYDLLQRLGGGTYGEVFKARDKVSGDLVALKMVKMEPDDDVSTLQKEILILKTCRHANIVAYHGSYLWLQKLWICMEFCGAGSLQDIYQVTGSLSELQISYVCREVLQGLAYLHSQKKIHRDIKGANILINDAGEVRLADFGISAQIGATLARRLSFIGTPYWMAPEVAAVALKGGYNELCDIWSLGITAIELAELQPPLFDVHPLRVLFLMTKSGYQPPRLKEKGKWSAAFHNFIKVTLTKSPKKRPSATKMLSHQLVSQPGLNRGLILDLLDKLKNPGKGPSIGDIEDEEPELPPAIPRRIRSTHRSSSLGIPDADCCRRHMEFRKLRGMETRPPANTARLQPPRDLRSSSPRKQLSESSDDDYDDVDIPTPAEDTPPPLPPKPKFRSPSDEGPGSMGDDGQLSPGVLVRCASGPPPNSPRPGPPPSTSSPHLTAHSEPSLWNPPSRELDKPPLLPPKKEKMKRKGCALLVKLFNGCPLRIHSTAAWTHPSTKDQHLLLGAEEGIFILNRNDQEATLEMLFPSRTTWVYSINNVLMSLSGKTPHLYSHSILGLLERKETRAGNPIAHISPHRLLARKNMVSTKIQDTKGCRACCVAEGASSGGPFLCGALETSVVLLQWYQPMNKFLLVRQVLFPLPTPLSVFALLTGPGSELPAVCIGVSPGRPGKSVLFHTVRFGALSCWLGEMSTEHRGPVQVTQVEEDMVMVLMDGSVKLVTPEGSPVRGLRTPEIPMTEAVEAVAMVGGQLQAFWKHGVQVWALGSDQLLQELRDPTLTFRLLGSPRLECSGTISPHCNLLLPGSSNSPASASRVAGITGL

This test has as its target HPK1 kinase (Homo sapiens, UniProt Q92918). As to the kind of experiment: Lantha screen assay, inhibitory effect on HPK1 kinase. The test is classed as biochemical. The conditions noted are these: initial compound concentration 1 µM. As for the experimental part: The Lantha screen assay is used to evaluate the inhibitory effect of the compounds on HPK1 kinase. • a) Kinase buffer: 50 mM HEPES (pH 7.5), 10 mM MgCl2, 4 mM DTT, 0.01% Tween-20, 0.01% BSA. • b) Compound Preparation: The compound is diluted with DMSO, and the initial detection concentration of the compound is 1 µM and is diluted to the corresponding concentration. • c) Kinase response and termination: A kinase solution is prepared by adding kinase buffer, the kinase solution and the compound are added to the test plate to be incubated at room temperature for 10 minutes. Fluorescein-PKC and ATP are added to the kinase buffer to form a substrate solution, and 5 µl of the substrate solution is added to the test plate to start the reaction to be incubated at room temperature for 90 minutes; then, 10 µl of a mixture of antibody and EDTA is added to terminate the reaction to be incubated at room temperature for 60 minutes. • d) The date is read by Envision instrument to plot a curve with the Log concentration of the inhibitor as the X-axis and the inhibition rate as the Y-axis, and then the formula Y=Bottom + (Top-Bottom)/(1+(IC50/X)^HillSlope) is used to obtain IC50. Table 1 Inhibitory activity the compounds of the invention on HPK1 kinase
Regarding `Cc1cc(-c2cnc3[nH]nc(-c4ccc(C(=O)N(C)C)cc4)c3n2)cc(C)c1C1=CCN(CC2CCN(c3ccc(N4CCC(=O)NC4=O)c(F)c3)C2)CC1` (stereo not shown) [compound 076], the IC50 is under 10 nM.

`Cc1cc(-c2cnc3[nH]cc(-c4ccc(C(=O)N(C)C)cc4)c3n2)cc(C)c1C1=CCN(CC2CN(c3cccc4c(C5CCC(=O)NC5=O)coc34)C2)CC1` (stereo not shown) [compound 147] had an IC50 of under 10 nM.

`Cc1cc(N2CC(CN3CC=C(c4c(C)cc(-c5cnc6[nH]cc(-c7ccc(C(=O)N(C)C)cc7)c6n5)cc4C)CC3)C2)ccc1NC1CCC(=O)NC1=O` (stereo not shown) [compound 021] gave an IC50 of under 10 nM.

`COc1cc(N2CC(CN3CC=C(c4c(C)cc(-c5cnc6[nH]cc(-c7ccc(C(=O)N(C)C)cc7)c6n5)cc4C)CC3)C2)ccc1C(=O)NC1CCC(=O)NC1=O` (stereo not shown) [compound 059] showed an IC50 of under 10 nM.

Take `Cc1cc(-c2cnc3[nH]cc(-c4ccc(C(=O)N(C)C)cc4)c3n2)cc(C)c1C1=CCN(CC2CN(c3ccc4c(c3)c(C3CCC(=O)NC3=O)nn4C)C2)CC1` (stereo not shown) [compound 145]: the IC50 was under 10 nM.

The compound `Cc1cc(-c2cnc3[nH]cc(-c4ccc(C(=O)N(C)C)cc4)c3n2)cc(C)c1C1=CCN(CC2CN(c3cccc(C4CCC(=O)NC4=O)c3)C2)CC1` (stereo not shown) [compound 025] showed an IC50 of under 10 nM.

Take `CN(C)C(=O)c1ccc(-c2c[nH]c3ncc(-c4ccc(C5=CCN(CC6CN(c7ccc(C(=O)NC8CCC(=O)NC8=O)cc7)C6)CC5)c(C5CCCN5)c4)nc23)cc1` (stereo not shown) [compound 058]: the IC50 was under 10 nM.

In turn, `Cc1cc(N2CC(CN3CC=C(c4c(C)cc(-c5cnc(N)c(Oc6cnn(C7CCN(C)CC7)c6)n5)cc4C)CC3)C2)ccc1N1CCC(=O)NC1=O` [compound 092] yielded an IC50 of under 10 nM.

In turn, `Cc1cc(-c2cnc3[nH]cc(-c4ccc(C(=O)N(C)C)cc4)c3n2)cc(C)c1C1=CCN(CC2CCN(c3ccc(C(=O)NC4CCC(=O)NC4=O)cc3)C2)CC1` (stereo not shown) [compound 074] registered an IC50 of under 10 nM.

As to `COCC(C)N1CCC(n2cc(-c3c[nH]c4ncc(-c5cc(C)c(C6=CCN(CC7CN(c8ccc(N9CCC(=O)NC9=O)c(C)c8)C7)CC6)c(C)c5)cc34)cn2)CC1` (stereo not shown) [compound 128], the IC50 is under 10 nM.

Turning to `Cc1cc(-c2cnc3[nH]cc(-c4ccc(C(=O)N(C)C)cc4)c3n2)cc(C)c1C1=CCN(CC2CN(c3ccc(NC4CCC(=O)NC4=O)cn3)C2)CC1` (stereo not shown) [compound 022], the IC50 is under 10 nM.

The compound `Cc1cc(-c2cnc(N)c(Oc3cnn(C4CCN(C)CC4)c3)n2)cc(C)c1C1=CCN(CC2CN(c3ccc(C(=O)NC4CCC(=O)NC4=O)cc3)C2)CC1` (stereo not shown) [compound 095] returned an IC50 of under 10 nM.

Consider `COc1cc(N2CC(CN3CC=C(c4c(C)cc(-c5cnc6scc(-c7ccc(C(=O)N(C)C)cc7)c6n5)cc4C)CC3)C2)ccc1C(=O)NC1CCC(=O)NC1=O` (stereo not shown) [compound 083], for which the IC50 was under 10 nM.

`Cc1cc(N2CC(CN3CC=C(c4c(C)cc(-c5cnc6[nH]cc(-c7cccc(C#N)c7F)c6c5)cc4C)CC3)C2)ccc1N1CCC(=O)NC1=O` [compound 101] showed an IC50 of under 10 nM.

`Cc1cc(-c2cnc3[nH]cc(-c4ccc(C(=O)N(C)C)c5ccccc45)c3n2)cc(C)c1C1=CCN(C2CN(c3ncc(C(=O)NC4CCC(=O)NC4=O)o3)C2)CC1` (stereo not shown) [compound 064] had an IC50 of under 10 nM.

As for `Cc1cc(-c2cnc3[nH]cc(-c4ccc(C(=O)N5CC6(COC6)C5)cc4)c3n2)cc(C)c1C1=CCN(CC2CN(c3ccc(C(=O)NC4CCC(=O)NC4=O)cc3)C2)CC1` (stereo not shown) [compound 075], the IC50 was under 10 nM.

The compound `COc1ccc(C(=O)N2CCC(CN3CC=C(c4c(C)cc(-c5cnc6scc(-c7ccc(C(=O)N(C)C)cc7)c6n5)cc4C)CC3)C2)cc1N1CCC(=O)NC1=O` (stereo not shown) [compound 082] returned an IC50 of under 10 nM.

The compound `CNc1cc(-c2cnc3[nH]cc(-c4ccc(C(=O)N(C)C)cc4)c3n2)ccc1C1=CCN(CC2CN(c3ccc(N4CCC(=O)NC4=O)c(C)c3)C2)CC1` [compound 131] yielded an IC50 of under 10 nM.

In turn, `Cc1cc(C2CC(CN3CC=C(c4c(C)cc(-c5cnc6[nH]cc(-c7ccc(C(=O)N(C)C)cc7)c6n5)cc4C)CC3)C2)ccc1N1CCC(=O)NC1=O` (stereo not shown) [compound 039] showed an IC50 of under 10 nM.

`Cc1cc(-c2cnc3[nH]cc(-c4ccc(C(=O)N(C)C)cc4)c3n2)cc(C)c1C1=CCN(CC2CN(c3ccc(NC4CCC(=O)NC4=O)cc3F)C2)CC1` (stereo not shown) [compound 106] yielded a half-inhibitory concentration (IC50) of under 10 nM.

Compound `Cc1cc(-c2cnc3[nH]cc(-c4ccc(C(=O)N(C)C)cc4)c3n2)cnc1C1=CCN(C2CCN(c3ccc(N4CCC(=O)NC4=O)c(F)c3)C2)CC1` (stereo not shown) [compound 055] registered an IC50 of under 10 nM.

Turning to `Cc1cc(N2CC(CN3CC=C(c4c(C)cc(-c5cnc6[nH]cc(-c7cnn(C8CCNCC8)c7)c6c5)cc4C)CC3)C2)ccc1N1CCC(=O)NC1=O` [compound 134], the IC50 was under 10 nM.

In turn, `Cc1cc(N2CC(CN3CC=C(c4c(C)cc(-c5cnc6[nH]cc(-c7cnn(C8CCOCC8)c7)c6c5)cc4C)CC3)C2)ccc1N1CCC(=O)NC1=O` [compound 114] came in with an IC50 of under 10 nM.

`Cc1cc(-c2cnc3[nH]cc(-c4ccc(C(=O)N(C)C)cc4)c3n2)cc(C)c1C1=CCN(CC2CN(c3ccc(C(=O)N[C@H]4CCC(=O)NC4=O)c(F)c3)C2)CC1` [compound 071]: the IC50 was under 10 nM.

`Cc1cc(-c2cnc3[nH]cc(-c4ccc(C(=O)N(C)C)cc4)c3n2)cc(C)c1C1=CCN(CC2CN(c3ccc4c(c3)c(N3CCC(=O)NC3=O)nn4C)C2)CC1` [compound 143]: the IC50 was under 10 nM.

`Cc1cc(-c2cnc3[nH]cc(-c4ccc(C(=O)N(C)C)cc4)c3n2)cc(C)c1C1=CCN(CC(=O)Cc2ccc(C3CCC(=O)NC3=O)c(F)c2)CC1` (stereo not shown) [compound 006]: the half-maximal inhibitory concentration (IC50) is under 10 nM.

With `Cc1cc(N2CC(CN3CC=C(c4c(C)cc(-c5cnc(N)c(Oc6ccc(C(=O)N(C)C)cc6)n5)cc4C)CC3)C2)ccc1N1CCC(=O)NC1=O` [compound 091], the IC50 is under 10 nM.

`Cc1cc(-c2cnc3[nH]cc(-c4ccc(C(=O)N(C)C)c(F)c4)c3n2)cc(C)c1C1=CCN(CC2CN(c3ccc(C(=O)NC4CCC(=O)NC4=O)cc3)C2)CC1` (stereo not shown) [compound 029] registered an IC50 of under 10 nM.

The compound `Cc1cc(N2CC(CN3CC=C(c4c(C)cc(-c5cnc6[nH]cc(-c7ccc(-c8ncco8)cc7)c6c5)cc4C)CC3)C2)ccc1N1CCC(=O)NC1=O` [compound 138] displayed an IC50 of under 10 nM.

In turn, `Cc1cc(N2CC(CN3CC=C(c4c(C)cc(-c5cnc6[nH]cc(-c7cnn(C8CCN(C9CCC9)CC8)c7)c6c5)cc4C)CC3)C2)ccc1N1CCC(=O)NC1=O` [compound 122] registered an IC50 of under 10 nM.

`COc1ccc(C(=O)C2CCC(N3CC=C(c4c(C)cc(-c5cnc6[nH]cc(-c7ccc(C(=O)N(C)C)cc7)c6n5)cc4C)CC3)C2)cc1N1CCC(=O)NC1=O` (stereo not shown) [compound 044] displayed an IC50 of under 10 nM.

`Cc1cc(-c2cnc3[nH]nc(-c4ccc(C(=O)N(C)C)cc4)c3c2)cc(C)c1C1=CCN(CC2CCN(C(=O)c3ccc(F)c(N4CCC(=O)NC4=O)c3)C2)CC1` (stereo not shown) [compound 078] had an IC50 of under 10 nM.

As for `Cc1ccc(C(=O)N2CC(CN3CC=C(c4ccc(-c5cnc6[nH]cc(-c7ccc(C(=O)N(C)C)cc7)c6n5)cc4CN(C)C)CC3)C2)cc1N1CCC(=O)NC1=O` [compound 051], the IC50 is under 10 nM.

In turn, `Cc1cc(-c2cnc3[nH]cc(-c4ccc(C(=O)N(C)C)cc4)c3n2)cc(C)c1C1=CCN(C(=O)CCc2cc(F)c(N3CCC(=O)NC3=O)c(F)c2)CC1` [compound 047] came in with an IC50 of under 10 nM.

Turning to `Cc1cc(N2CC3(CC(N4CC=C(c5c(C)cc(-c6cnc7[nH]cc(-c8ccc(C(=O)N(C)C)cc8)c7n6)cc5C)CC4)C3)C2)ccc1N1CCC(=O)NC1=O` [compound 034], the IC50 was under 10 nM.

`Cc1cc(N2CC(CN3CC=C(c4c(C)cc(-c5cnc6[nH]cc(-c7cnn(C8CCN(C9CC9)CC8)c7)c6c5)cc4C)CC3)C2)ccc1N1CCC(=O)NC1=O` [compound 118] showed an IC50 of under 10 nM.

For the compound `Cc1cc(N2CC(CN3CC=C(c4c(C)cc(-c5cnc6[nH]cc(-c7cnn(C8CCN(C(C)CC(=O)N(C)C)CC8)c7)c6c5)cc4C)CC3)C2)ccc1N1CCC(=O)NC1=O` (stereo not shown) [compound 136], the IC50 is under 10 nM.

In the case of `Cc1cc(N2CCC(CN3CC=C(c4c(C)cc(-c5cnc6[nH]cc(-c7ccc(C(=O)N(C)C)cc7)c6n5)cc4C)CC3)C2)ccc1N1CCC(=O)NC1=O` (stereo not shown) [compound 123], the IC50 was under 10 nM.

In the case of `Cc1cc(-c2cnc3[nH]cc(-c4cnc5[nH]ccc5c4)c3n2)cc(C)c1C1=CCN(C2CN(c3ccc(C(=O)NC4CCC(=O)NC4=O)cc3)C2)CC1` (stereo not shown) [compound 070], the IC50 is under 10 nM.

Compound `Cc1cc(-c2cnc3[nH]cc(-c4ccc(C(=O)N(C)C)cc4)c3n2)cc(C)c1C1=CCN(CC2CN(c3cc(F)c(C4CCC(=O)NC4=O)c(F)c3)C2)CC1` (stereo not shown) [compound 002] gave an IC50 of under 10 nM.

`Cc1cc(-c2cnc3[nH]cc(-c4ccc(C(=O)N(C)C)cc4)c3n2)cc(C)c1C1=CCN(CC2CN(c3ccc4c(=O)n(C5CCC(=O)NC5=O)ccc4c3)C2)CC1` (stereo not shown) [compound 084]: the IC50 is under 10 nM.

Compound `Cc1cc(-c2cnc3[nH]cc(-c4ccc(C(=O)N(C)C[C@H](C)O)cc4)c3n2)cc(C)c1C1=CCN(CC2CN(c3ccc(C(=O)NC4CCC(=O)NC4=O)cc3)C2)CC1` (stereo partly shown) [compound 032] registered a half-inhibitory concentration (IC50) of under 10 nM.

On to `Cc1cc(-c2cnc3[nH]cc(-c4ccc(C(=O)N(C)C)cc4)c3n2)cc(C)c1C1=CCN(CC2CN(C3=CC(=O)N(C4CCC(=O)NC4=O)C3=O)C2)CC1` (stereo not shown) [compound 088], for which the IC50 was under 10 nM.

As usually defined, the IC50 is the midpoint of a concentration-inhibition curve.

Values taken from patent publication EP4813992A1, “POLYARYL DERIVATIVE AND USE THEREOF” (Hangzhou HealZen Therapeutics Co., Ltd., priority 2023, dated 2025).
